Laboratory results taken from article PMC5392334, “Discovery and characterization of a novel irreversible EGFR mutants selective and potent kinase inhibitor CHMFL-EGFR-26 with a distinct binding mode” (Oncotarget, 2017).

How the values were obtained:
[1] = target: T1, AKT1 (Homo sapiens, UniProt P31749); test: KinomeScan; format: binding; conditions: read-out: % control
T1 construct: purchased DiscoveRx KINOMEscan

[2] = target: T2, AAK1 (Homo sapiens, UniProt Q2M2I8); test: KinomeScan; format: binding; conditions: read-out: % control
T2 construct: purchased DiscoveRx KINOMEscan

[3] = target: T3, WEE2 (Homo sapiens, UniProt P0C1S8); test: KinomeScan; format: binding; conditions: read-out: % control
T3 construct: purchased DiscoveRx KINOMEscan

[4] = target: T4, RIOK2 (Homo sapiens, UniProt Q9BVS4); test: KinomeScan; format: binding; conditions: read-out: % control
T4 construct: purchased DiscoveRx KINOMEscan

[5] = target: T5, YANK3 (Homo sapiens, UniProt Q86UX6); test: KinomeScan; format: binding; conditions: read-out: % control
T5 construct: purchased DiscoveRx KINOMEscan

[6] = target: T6, PAK7 (Homo sapiens, UniProt Q9P286); test: KinomeScan; format: binding; conditions: read-out: % control
T6 construct: purchased DiscoveRx KINOMEscan

[7] = target: T7, HIPK3 (Homo sapiens, UniProt Q9H422); test: KinomeScan; format: binding; conditions: read-out: % control
T7 construct: purchased DiscoveRx KINOMEscan

[8] = target: T8, FLT3(D835V) (Homo sapiens, UniProt P36888, D835V); test: KinomeScan; format: binding; conditions: read-out: % control
T8 construct: purchased DiscoveRx KINOMEscan

[9] = target: T9, ULK1 (Homo sapiens, UniProt O75385); test: KinomeScan; format: binding; conditions: read-out: % control
T9 construct: purchased DiscoveRx KINOMEscan

[10] = target: T10, MARK1 (Homo sapiens, UniProt Q9P0L2); test: KinomeScan; format: binding; conditions: read-out: % control
T10 construct: purchased DiscoveRx KINOMEscan

[11] = target: T11, MAP4K2 (Homo sapiens, UniProt Q12851); test: KinomeScan; format: binding; conditions: read-out: % control
T11 construct: purchased DiscoveRx KINOMEscan

[12] = target: T12, EGFR(L747-S752del, P753S) (Homo sapiens, UniProt P00533, DEL747-752/P753S); test: KinomeScan; format: binding; conditions: read-out: % control
T12 construct: purchased DiscoveRx KINOMEscan

[13] = target: T13, PRKD3 (Homo sapiens, UniProt O94806); test: KinomeScan; format: binding; conditions: read-out: % control
T13 construct: purchased DiscoveRx KINOMEscan
T13 sequence (O94806 whole entry): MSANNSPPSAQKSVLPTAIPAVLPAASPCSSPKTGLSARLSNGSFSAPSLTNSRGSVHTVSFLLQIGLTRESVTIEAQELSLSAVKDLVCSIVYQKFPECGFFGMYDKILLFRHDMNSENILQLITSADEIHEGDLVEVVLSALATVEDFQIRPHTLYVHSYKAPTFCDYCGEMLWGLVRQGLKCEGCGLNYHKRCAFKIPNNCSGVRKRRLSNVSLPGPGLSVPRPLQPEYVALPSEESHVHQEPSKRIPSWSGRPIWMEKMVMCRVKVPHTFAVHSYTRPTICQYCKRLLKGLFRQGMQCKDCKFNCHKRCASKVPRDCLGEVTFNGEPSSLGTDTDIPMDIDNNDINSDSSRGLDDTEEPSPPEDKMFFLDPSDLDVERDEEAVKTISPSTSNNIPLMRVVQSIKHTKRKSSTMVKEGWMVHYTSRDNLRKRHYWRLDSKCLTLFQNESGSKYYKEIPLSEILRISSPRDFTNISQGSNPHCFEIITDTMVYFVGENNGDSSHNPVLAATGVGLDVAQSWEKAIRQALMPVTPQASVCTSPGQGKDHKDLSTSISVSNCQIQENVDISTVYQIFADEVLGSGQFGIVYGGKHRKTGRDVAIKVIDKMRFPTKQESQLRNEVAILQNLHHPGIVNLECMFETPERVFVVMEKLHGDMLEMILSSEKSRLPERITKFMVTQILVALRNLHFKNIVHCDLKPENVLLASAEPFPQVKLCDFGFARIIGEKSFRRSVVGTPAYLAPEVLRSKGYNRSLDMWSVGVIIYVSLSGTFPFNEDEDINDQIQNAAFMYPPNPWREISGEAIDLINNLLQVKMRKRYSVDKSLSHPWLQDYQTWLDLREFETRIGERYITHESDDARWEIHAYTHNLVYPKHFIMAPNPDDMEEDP

[14] = target: T14, PIKFYVE (Homo sapiens, UniProt Q9Y2I7); test: KinomeScan; format: binding; conditions: read-out: % control
T14 construct: purchased DiscoveRx KINOMEscan

[15] = target: T15, ADCK3 (Homo sapiens, UniProt Q8NI60); test: KinomeScan; format: binding; conditions: read-out: % control
T15 construct: purchased DiscoveRx KINOMEscan

[16] = target: T16, EGFR(S752-I759del) (Homo sapiens, UniProt P00533, DEL752-759); test: KinomeScan; format: binding; conditions: read-out: % control
T16 construct: purchased DiscoveRx KINOMEscan

[17] = target: T17, CLK4 (Homo sapiens, UniProt Q9HAZ1); test: KinomeScan; format: binding; conditions: read-out: % control
T17 construct: purchased DiscoveRx KINOMEscan

[18] = target: T18, ERN1 (Homo sapiens, UniProt O75460); test: KinomeScan; format: binding; conditions: read-out: % control
T18 construct: purchased DiscoveRx KINOMEscan

[19] = target: T19, MKK7 (Homo sapiens, UniProt O14733); test: KinomeScan; format: binding; conditions: read-out: % control
T19 construct: purchased DiscoveRx KINOMEscan
T19 sequence (O14733 whole entry): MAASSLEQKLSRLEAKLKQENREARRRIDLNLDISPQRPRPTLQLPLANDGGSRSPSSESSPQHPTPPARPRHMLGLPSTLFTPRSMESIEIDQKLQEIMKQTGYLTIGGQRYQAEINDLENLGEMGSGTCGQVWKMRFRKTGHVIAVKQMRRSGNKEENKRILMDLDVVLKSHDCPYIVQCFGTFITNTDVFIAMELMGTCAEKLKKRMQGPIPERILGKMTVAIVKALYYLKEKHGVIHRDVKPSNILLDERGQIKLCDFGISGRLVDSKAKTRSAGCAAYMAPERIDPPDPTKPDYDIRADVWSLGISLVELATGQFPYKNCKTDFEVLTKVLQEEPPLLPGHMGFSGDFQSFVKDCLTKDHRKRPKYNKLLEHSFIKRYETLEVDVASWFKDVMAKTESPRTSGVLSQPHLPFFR

[20] = target: T20, ASK1 (Homo sapiens, UniProt Q99683); test: KinomeScan; format: binding; conditions: read-out: % control
T20 construct: purchased DiscoveRx KINOMEscan
T20 sequence (Q99683 whole entry): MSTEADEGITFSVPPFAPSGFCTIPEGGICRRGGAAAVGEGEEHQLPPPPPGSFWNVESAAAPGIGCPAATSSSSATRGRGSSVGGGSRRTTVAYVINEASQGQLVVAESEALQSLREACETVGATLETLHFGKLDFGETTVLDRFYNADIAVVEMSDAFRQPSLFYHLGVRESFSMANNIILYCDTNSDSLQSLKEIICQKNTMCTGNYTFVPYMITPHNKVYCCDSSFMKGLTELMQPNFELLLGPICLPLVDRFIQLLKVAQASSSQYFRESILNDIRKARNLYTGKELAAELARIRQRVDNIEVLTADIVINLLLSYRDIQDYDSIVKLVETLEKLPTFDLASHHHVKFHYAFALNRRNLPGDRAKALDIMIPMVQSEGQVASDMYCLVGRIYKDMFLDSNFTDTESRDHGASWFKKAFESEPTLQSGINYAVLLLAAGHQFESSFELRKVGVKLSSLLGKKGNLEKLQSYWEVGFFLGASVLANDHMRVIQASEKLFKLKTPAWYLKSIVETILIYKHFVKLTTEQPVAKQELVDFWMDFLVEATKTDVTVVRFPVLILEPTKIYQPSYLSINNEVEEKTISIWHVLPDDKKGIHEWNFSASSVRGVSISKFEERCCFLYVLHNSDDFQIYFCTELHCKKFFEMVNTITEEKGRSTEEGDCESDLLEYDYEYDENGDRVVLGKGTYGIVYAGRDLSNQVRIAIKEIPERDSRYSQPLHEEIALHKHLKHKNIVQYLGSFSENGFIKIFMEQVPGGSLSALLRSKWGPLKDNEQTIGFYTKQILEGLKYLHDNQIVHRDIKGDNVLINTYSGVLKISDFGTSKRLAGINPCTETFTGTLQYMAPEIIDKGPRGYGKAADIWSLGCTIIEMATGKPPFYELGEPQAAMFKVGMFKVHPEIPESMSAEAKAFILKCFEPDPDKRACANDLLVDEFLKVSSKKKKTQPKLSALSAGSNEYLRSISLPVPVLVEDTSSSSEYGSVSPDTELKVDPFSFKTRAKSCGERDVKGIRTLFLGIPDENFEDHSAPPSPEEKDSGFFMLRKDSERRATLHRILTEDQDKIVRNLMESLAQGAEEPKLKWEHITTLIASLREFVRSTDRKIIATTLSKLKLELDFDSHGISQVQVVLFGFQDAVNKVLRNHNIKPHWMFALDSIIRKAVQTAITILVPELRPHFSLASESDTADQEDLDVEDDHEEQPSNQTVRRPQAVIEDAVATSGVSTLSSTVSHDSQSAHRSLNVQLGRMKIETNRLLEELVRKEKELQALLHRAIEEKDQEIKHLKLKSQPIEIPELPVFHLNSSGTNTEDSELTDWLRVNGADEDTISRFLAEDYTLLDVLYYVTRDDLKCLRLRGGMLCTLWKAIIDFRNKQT

[21] = target: T21, DCAMKL2 (Homo sapiens, UniProt Q8N568); test: KinomeScan; format: binding; conditions: read-out: % control
T21 construct: purchased DiscoveRx KINOMEscan

[22] = target: T22, CTK (Homo sapiens, UniProt P42679); test: KinomeScan; format: binding; conditions: read-out: % control
T22 construct: purchased DiscoveRx KINOMEscan
T22 sequence (P42679 whole entry): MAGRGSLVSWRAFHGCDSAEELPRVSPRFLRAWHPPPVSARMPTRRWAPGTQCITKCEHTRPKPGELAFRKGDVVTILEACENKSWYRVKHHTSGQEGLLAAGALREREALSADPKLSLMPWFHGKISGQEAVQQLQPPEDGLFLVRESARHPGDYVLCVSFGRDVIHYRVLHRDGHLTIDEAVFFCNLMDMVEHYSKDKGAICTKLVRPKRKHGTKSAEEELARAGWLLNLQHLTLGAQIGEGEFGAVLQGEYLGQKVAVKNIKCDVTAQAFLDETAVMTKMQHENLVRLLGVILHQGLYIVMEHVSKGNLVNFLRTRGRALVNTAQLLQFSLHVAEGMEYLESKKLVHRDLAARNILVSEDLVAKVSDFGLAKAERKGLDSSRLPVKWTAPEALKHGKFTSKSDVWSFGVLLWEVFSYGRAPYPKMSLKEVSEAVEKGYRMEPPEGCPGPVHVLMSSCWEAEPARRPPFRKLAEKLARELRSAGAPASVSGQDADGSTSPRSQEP

[23] = target: T23, CDKL3 (Homo sapiens, UniProt Q8IVW4); test: KinomeScan; format: binding; conditions: read-out: % control
T23 construct: purchased DiscoveRx KINOMEscan
T23 sequence (Q8IVW4 whole entry): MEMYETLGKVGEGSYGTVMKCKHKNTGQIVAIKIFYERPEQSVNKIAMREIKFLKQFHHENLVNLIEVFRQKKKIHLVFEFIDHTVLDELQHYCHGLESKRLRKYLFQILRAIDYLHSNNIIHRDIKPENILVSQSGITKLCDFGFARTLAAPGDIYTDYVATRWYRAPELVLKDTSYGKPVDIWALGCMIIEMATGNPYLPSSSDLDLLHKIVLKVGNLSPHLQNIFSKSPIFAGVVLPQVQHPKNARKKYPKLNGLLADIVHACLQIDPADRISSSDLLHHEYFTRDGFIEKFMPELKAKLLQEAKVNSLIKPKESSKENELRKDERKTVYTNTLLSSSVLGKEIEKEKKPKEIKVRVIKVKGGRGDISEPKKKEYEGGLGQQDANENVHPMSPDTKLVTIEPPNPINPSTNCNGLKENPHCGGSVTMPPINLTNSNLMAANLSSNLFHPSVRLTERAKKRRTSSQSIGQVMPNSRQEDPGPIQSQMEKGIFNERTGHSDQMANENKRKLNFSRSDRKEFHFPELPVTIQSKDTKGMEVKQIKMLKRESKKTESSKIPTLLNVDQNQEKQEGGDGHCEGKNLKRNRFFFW

[24] = target: T24, CSNK2A1 (Homo sapiens, UniProt P68400); test: KinomeScan; format: binding; conditions: read-out: % control
T24 construct: purchased DiscoveRx KINOMEscan
T24 sequence (P68400 whole entry): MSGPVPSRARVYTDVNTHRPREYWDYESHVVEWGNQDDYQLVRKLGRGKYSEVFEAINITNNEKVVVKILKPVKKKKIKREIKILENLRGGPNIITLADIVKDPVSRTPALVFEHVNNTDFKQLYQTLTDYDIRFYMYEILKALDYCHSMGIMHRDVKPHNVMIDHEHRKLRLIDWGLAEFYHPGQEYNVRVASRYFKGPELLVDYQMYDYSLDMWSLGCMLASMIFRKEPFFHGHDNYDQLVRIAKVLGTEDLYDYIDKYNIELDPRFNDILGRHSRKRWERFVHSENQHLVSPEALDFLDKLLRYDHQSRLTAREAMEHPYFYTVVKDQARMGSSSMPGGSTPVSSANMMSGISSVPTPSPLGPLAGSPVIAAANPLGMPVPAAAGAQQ

[25] = target: T25, MKNK1 (Homo sapiens, UniProt Q9BUB5); test: KinomeScan; format: binding; conditions: read-out: % control
T25 construct: purchased DiscoveRx KINOMEscan

[26] = tested on: H1975 tumor xenografts; test: H1975 cells inoculated xenograft mouse model; conditions: for Tumor weight (final, mean): 21-day treatment
[27] = target: T26, NEK5 (Homo sapiens, UniProt Q6P3R8); test: KinomeScan; format: binding; conditions: read-out: % control
T26 construct: purchased DiscoveRx KINOMEscan
T26 sequence (Q6P3R8 whole entry): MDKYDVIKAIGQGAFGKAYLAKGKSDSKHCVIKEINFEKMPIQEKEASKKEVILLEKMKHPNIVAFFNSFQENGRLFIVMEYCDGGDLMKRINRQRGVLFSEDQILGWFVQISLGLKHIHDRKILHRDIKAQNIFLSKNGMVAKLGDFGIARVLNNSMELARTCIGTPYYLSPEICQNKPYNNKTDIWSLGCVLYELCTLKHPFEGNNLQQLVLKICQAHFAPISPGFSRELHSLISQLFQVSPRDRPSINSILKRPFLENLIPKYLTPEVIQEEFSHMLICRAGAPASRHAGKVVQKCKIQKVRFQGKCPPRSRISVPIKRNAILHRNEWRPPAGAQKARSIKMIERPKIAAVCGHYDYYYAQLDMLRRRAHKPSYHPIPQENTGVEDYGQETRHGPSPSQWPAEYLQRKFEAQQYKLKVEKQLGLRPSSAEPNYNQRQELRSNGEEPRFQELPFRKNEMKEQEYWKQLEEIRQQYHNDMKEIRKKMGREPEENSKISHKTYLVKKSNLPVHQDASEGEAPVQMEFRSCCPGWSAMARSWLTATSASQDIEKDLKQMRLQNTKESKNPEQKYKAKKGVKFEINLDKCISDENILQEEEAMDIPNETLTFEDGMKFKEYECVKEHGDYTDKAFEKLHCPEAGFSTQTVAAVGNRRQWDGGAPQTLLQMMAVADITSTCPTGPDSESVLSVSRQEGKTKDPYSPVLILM

[28] = target: T27, EGFR(T790M) (Homo sapiens, UniProt P00533, T790M); test: KinomeScan; format: binding; conditions: read-out: % control
T27 construct: purchased DiscoveRx KINOMEscan

[29] = target: T28, CSNK1E (Homo sapiens, UniProt P49674); test: KinomeScan; format: binding; conditions: read-out: % control
T28 construct: purchased DiscoveRx KINOMEscan

[30] = target: T29, WNK4 (Homo sapiens, UniProt Q96J92); test: KinomeScan; format: binding; conditions: read-out: % control
T29 construct: purchased DiscoveRx KINOMEscan

[31] = H1975 xenograft, 25.0 mg/kg/d oral
[32] = H1975 xenograft, 50.0 mg/kg/d oral
[33] = H1975 xenograft, 100 mg/kg/d oral

Structure (SMILES): C=CC(=O)N1CCC[C@@H](n2nc(-c3ccc(OCc4cccc(C)n4)c(Cl)c3)c3c(N)ncnc32)C1 [CHMFL-EGFR-26]
- remaining binding at 1 µM [1]: 98%
- remaining binding at 1 µM [2]: 96%
- remaining binding at 1 µM [3]: 84%
- remaining binding at 1 µM [4]: 100%
- remaining binding at 1 µM [5]: 90%
- remaining binding at 1 µM [6]: 67%
- remaining binding at 1 µM [7]: 100%
- remaining binding at 1 µM [8]: 70%
- remaining binding at 1 µM [9]: 85%
- remaining binding at 1 µM [10]: 100%
- remaining binding at 1 µM [11]: 100%
- remaining binding at 1 µM [12]: 20%
- remaining binding at 1 µM [13]: 92%
- remaining binding at 1 µM [14]: 75%
- remaining binding at 1 µM [15]: 100%
- remaining binding at 1 µM [16]: 12%
- remaining binding at 1 µM [17]: 100%
- remaining binding at 1 µM [18]: 81%
- remaining binding at 1 µM [19]: 2.5%
- remaining binding at 1 µM [20]: 97%
- remaining binding at 1 µM [21]: 95%
- remaining binding at 1 µM [22]: 95%
- remaining binding at 1 µM [23]: 97%
- remaining binding at 1 µM [24]: 100%
- remaining binding at 1 µM [25]: 100%
- TGI (tumor growth inhibition rate) [26, 31]: 23.0%
- Tumor weight (final, mean) [26, 31]: 1.37 g
- TGI (tumor growth inhibition rate) [26, 32]: 48.9%
- Tumor weight (final, mean) [26, 32]: 0.91 g
- TGI (tumor growth inhibition rate) [26, 33]: 60.1%
- Tumor weight (final, mean) [26, 33]: 0.71 g
- toxicity (body weight) ([26]; H1975 xenograft, oral 25, 50 and 100mg/kg/day): did not show any apparent toxicity
- hyperglycemia ([26]; preclinical mouse model study): no hyperglycemia phenomenon was observed
- remaining binding at 1 µM [27]: 93%
- remaining binding at 1 µM [28]: 0.25%
- remaining binding at 1 µM [29]: 9.1%
- remaining binding at 1 µM [30]: 86%
